Among the test systems are MDA-N; SK-MEL-5; TK-10; SW-620; OVCAR-4; HCT-15; RXF 393; Hs-578T; NCI/ADR-RES; SK-MEL-28; SF-268; HOP-62; SN12C; EKVX; U-251; NCI-H226; NCI-H460; IGROV-1; SF-539; HOP-92.
Common to all, as to experiment: NCI tumour cell line growth inhibition, 48 h

Structures are written as SMILES.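 Compound exposure: 48 hours, 5 concentrations, 96-well plates. Abbreviation: GI50, concentration required for 50% inhibition of growth.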 The source made the active and inactive calls. Cut-off read from the data, not from the text of the source: active = GI50 up to about 1.1 µM and inactive = higher.

Experimental findings from ChEMBL document CHEMBL1201862, “PubChem BioAssay data set” (2004) are described below.

Turning to `O=S1(=O)OCCCOS(=O)(=O)C1(Br)Br`, the GI50 is > 100 µM (inactive) in the experiment on MDA-N; > 100 µM (inactive) in the experiment with SK-MEL-5; > 100 µM (inactive) in the experiment with TK-10; > 100 µM (inactive) in the experiment on SW-620; > 100 µM (inactive) in the experiment on OVCAR-4; greater than 100 µM with HCT-15. In addition, the GI50 with RXF 393 was > 100 µM (inactive); in the experiment with Hs-578T, 62.2 µM (inactive); in the experiment on NCI/ADR-RES it was > 100 µM (inactive); in the experiment on SK-MEL-28, > 100 µM (inactive); with SF-268, > 100 µM (inactive); with HOP-62, 0.743 µM (active). The GI50 with SN12C, in the experiment on EKVX, in the experiment with U-251 and in the experiment on NCI-H226 was > 100 µM (inactive) in each case.
With `Clc1ccc(-c2ccc(-c3nnc(COc4ccc(OCc5nnc(-c6ccc(-c7ccc(Cl)cc7Cl)o6)o5)c(Cl)c4)o3)o2)c(Cl)c1`, the GI50 in the experiment with MDA-N was > 100 µM (inactive); in the experiment with SK-MEL-5, > 100 µM (inactive); with TK-10, 84.5 µM (inactive); with SW-620, > 100 µM (inactive); with OVCAR-4 it was > 100 µM (inactive); with NCI-H460 it was > 100 µM (inactive). In addition, the GI50 in the experiment on HCT-15 is greater than 100 µM; with RXF 393 it was 16.2 µM (inactive); with Hs-578T, 83 µM (inactive); with NCI/ADR-RES, > 100 µM (inactive); with SK-MEL-28 it was > 100 µM (inactive); with SF-268, 56.1 µM (inactive). Further, the GI50 with HOP-62 is 36.6 µM (inactive); in the experiment on IGROV-1, > 100 µM (inactive); in the experiment with SN12C, > 100 µM (inactive); in the experiment with EKVX, > 100 µM (inactive); in the experiment with U-251, 40 µM (inactive); with NCI-H226 it was > 100 µM (inactive).
Turning to `CC12CC(c3ccccc3O1)C(C(=O)Nc1ccc(Cl)cc1Cl)C(=O)N2` (stereo not given), the GI50 with SF-539 was 45.4 µM (inactive); in the experiment with MDA-N, > 100 µM (inactive); in the experiment on SK-MEL-5 it was > 100 µM (inactive); with SW-620 it was 24.8 µM (inactive); in the experiment with OVCAR-4, 19.6 µM (inactive); in the experiment with NCI-H460 it was 31.6 µM (inactive). The GI50 is 54.2 µM in the experiment with HCT-15; 25.2 µM (inactive) in the experiment with Hs-578T; 36.8 µM (inactive) in the experiment on NCI/ADR-RES; 72.8 µM (inactive) with SK-MEL-28; 33.8 µM (inactive) with SF-268; 20.1 µM (inactive) in the experiment with HOP-62. In addition, the GI50 with IGROV-1 was 24.2 µM (inactive); in the experiment on EKVX, 18.3 µM (inactive); in the experiment with U-251 it was 22.2 µM (inactive).
Take `CC/C(=C\c1ccc(Cl)c(Cl)c1)[N+](=O)[O-]`: the GI50 is 1.89 µM (inactive) in the experiment with SF-539; 1.97 µM (inactive) in the experiment on SK-MEL-5; 1.94 µM (inactive) in the experiment with TK-10; 3.03 µM (inactive) in the experiment on SW-620; 3 µM (inactive) in the experiment with OVCAR-4; 2.42 µM (inactive) with NCI-H460. Further, the GI50 in the experiment with HCT-15 is 1.66 µM; in the experiment with Hs-578T, 3.48 µM (inactive); in the experiment with NCI/ADR-RES, 2.27 µM (inactive); with SK-MEL-28, 2.06 µM (inactive); with SF-268, 2.03 µM (inactive); in the experiment on HOP-62, 2.96 µM (inactive). In addition, the GI50 in the experiment with IGROV-1 is 1.64 µM (inactive); in the experiment on SN12C it was 2.09 µM (inactive); with EKVX, 2.76 µM (inactive); in the experiment with U-251, 1.86 µM (inactive); in the experiment with NCI-H226 it was 2.23 µM (inactive).
`COC(=O)NN=C(c1ccc(Cl)cc1)c1ccc(Cl)cc1`: the GI50 in the experiment on SF-539 was 93.8 µM (inactive); in the experiment on MDA-N it was > 100 µM (inactive); with SK-MEL-5, > 100 µM (inactive); with TK-10, 54.2 µM (inactive); in the experiment with SW-620, > 100 µM (inactive); with OVCAR-4, 40.3 µM (inactive). Further, the GI50 is > 100 µM (inactive) in the experiment on NCI-H460; greater than 100 µM in the experiment on HCT-15; 22.4 µM (inactive) with RXF 393; > 100 µM (inactive) in the experiment on Hs-578T; > 100 µM (inactive) in the experiment on NCI/ADR-RES; > 100 µM (inactive) in the experiment with SK-MEL-28. The GI50 was > 100 µM (inactive) in the experiment with SF-268; 22.9 µM (inactive) in the experiment with IGROV-1; > 100 µM (inactive) in the experiment with SN12C; > 100 µM (inactive) in the experiment on EKVX; > 100 µM (inactive) in the experiment with U-251; > 100 µM (inactive) with NCI-H226.
As for `CC(=O)c1cc(S(=O)(=O)c2ccc(O)c(C(C)=O)c2)ccc1O`, the GI50 in the experiment with SF-539 was 30.2 µM (inactive); in the experiment on MDA-N, > 100 µM (inactive); in the experiment with SK-MEL-5 it was > 100 µM (inactive); in the experiment with TK-10 it was 52 µM (inactive); with SW-620 it was > 100 µM (inactive); in the experiment with OVCAR-4, > 100 µM (inactive). In addition, the GI50 in the experiment with NCI-H460 is 84.9 µM (inactive); in the experiment on HCT-15, 95.9 µM; in the experiment on RXF 393 it was 71.4 µM (inactive); with NCI/ADR-RES it was 58.7 µM (inactive); in the experiment with HOP-92, > 100 µM (inactive); with SK-MEL-28 it was 38.7 µM (inactive). Moreover, the GI50 was 55.6 µM (inactive) in the experiment on SF-268; > 100 µM (inactive) in the experiment with HOP-62; > 100 µM (inactive) in the experiment with IGROV-1; > 100 µM (inactive) in the experiment with SN12C; > 100 µM (inactive) in the experiment on EKVX; 31.6 µM (inactive) in the experiment with U-251. The GI50 in the experiment with NCI-H226 was > 100 µM (inactive).
For the molecule `COc1cccc(NCC(=O)Nn2c(-c3ccccc3)nc3ccccc3c2=O)c1`, the GI50 with SF-539 was > 100 µM (inactive); in the experiment with SK-MEL-5, 57.7 µM (inactive); with TK-10, > 100 µM (inactive); in the experiment on SW-620 it was > 100 µM (inactive); with OVCAR-4 it was > 100 µM (inactive); with NCI-H460, > 100 µM (inactive). The GI50 with HCT-15 is greater than 100 µM; with RXF 393, > 100 µM (inactive); in the experiment with Hs-578T it was > 100 µM (inactive); with NCI/ADR-RES, > 100 µM (inactive); with HOP-92, 49.3 µM (inactive); with SK-MEL-28, > 100 µM (inactive). For the same molecule, the GI50 in the experiment with SF-268 was > 100 µM (inactive); with HOP-62, > 100 µM (inactive); in the experiment on IGROV-1, 64.4 µM (inactive); in the experiment on SN12C, > 100 µM (inactive); in the experiment on EKVX it was 91.6 µM (inactive); in the experiment with U-251, > 100 µM (inactive). The GI50 in the experiment on NCI-H226 was > 100 µM (inactive).
For the molecule `[O-][S+](CCc1ccccc1)Nc1ccccc1` (stereo not given), the GI50 in the experiment with SF-539, with MDA-N, in the experiment on SK-MEL-5, in the experiment with TK-10, in the experiment with SW-620 and with NCI-H460 was > 100 µM (inactive) each time. The GI50 is greater than 100 µM with HCT-15; 55.5 µM (inactive) in the experiment on RXF 393; 0.0406 µM (active) in the experiment on Hs-578T; 58.5 µM (inactive) in the experiment with NCI/ADR-RES; > 100 µM (inactive) with SK-MEL-28; > 100 µM (inactive) in the experiment on SF-268. Also, the GI50 in the experiment with HOP-62, in the experiment on IGROV-1, in the experiment on SN12C, in the experiment on EKVX, in the experiment on U-251 and in the experiment on NCI-H226 was > 100 µM (inactive) throughout.
`CC(=O)O[C@H]1C(=O)[C@@]2(C)[C@H]([C@H](OC(=O)c3ccc(F)cc3)[C@]3(O)C[C@H](OC(=O)[C@H](O)[C@@H](NC(=O)c4ccccc4)c4ccccc4)C(C)=C1C3(C)C)[C@]1(OC(C)=O)CO[C@@H]1C[C@@H]2O`: the GI50 was 0.0102 µM (active) in the experiment with SF-539; 0.0025 µM (active) in the experiment on MDA-N; 0.023 µM (active) with SK-MEL-5; 0.416 µM (active) with TK-10; 0.0065 µM (active) with SW-620; 6.58 µM (inactive) with OVCAR-4. Besides, the GI50 with NCI-H460 is 0.0132 µM (active); in the experiment on HCT-15 it was 1.47 µM; in the experiment with RXF 393, 0.0813 µM (active); in the experiment with Hs-578T it was 0.00536 µM (active); with NCI/ADR-RES, 9.84 µM (inactive); in the experiment on SK-MEL-28 it was 9.48 µM (inactive). The GI50 with SF-268 was 0.0929 µM (active); in the experiment on HOP-62, 0.126 µM (active); in the experiment on IGROV-1 it was 0.0233 µM (active); in the experiment with SN12C, 0.528 µM (active); with EKVX, 2 µM (inactive); in the experiment with U-251, 0.00857 µM (active). Besides, the GI50 with NCI-H226 was 0.108 µM (active).
As for `O=C(NCCC1CN(S(=O)(=O)C(F)(F)F)c2ccccc21)OCc1ccccc1` (stereo not given), the GI50 was > 100 µM (inactive) with SK-MEL-5; > 100 µM (inactive) in the experiment on SW-620; > 100 µM (inactive) in the experiment on OVCAR-4; > 100 µM (inactive) in the experiment with NCI-H460; greater than 100 µM with HCT-15; > 100 µM (inactive) with RXF 393. The GI50 in the experiment on Hs-578T is 76.6 µM (inactive); in the experiment with NCI/ADR-RES it was > 100 µM (inactive); with HOP-92, 77.4 µM (inactive); with SK-MEL-28, > 100 µM (inactive); in the experiment with SF-268, > 100 µM (inactive); in the experiment with HOP-62, > 100 µM (inactive). In addition, the GI50 in the experiment on IGROV-1 is > 100 µM (inactive); in the experiment on EKVX it was > 100 µM (inactive); in the experiment with U-251 it was 83.9 µM (inactive).
As to `CC[C@@H]1/C=C/C=C/C[C@H](C)[C@@H](O)[C@](C)(O)C(=O)[C@H](C)[C@@H](O)[C@H](C)C(=O)[C@H](C)[C@@H](O)[C@H](C)/C=C/C(=O)O[C@H]2[C@@H](C)[C@@H](CC1)O[C@@]1(CC[C@@H](C)[C@@H](CC(C)O)O1)[C@@H]2C` (stereo not given in full), the GI50 is 3.58 µM (inactive) with SF-539; 1.61 µM (inactive) in the experiment on MDA-N; < 0.01 µM (active) in the experiment on SK-MEL-5; 1.65 µM (inactive) in the experiment with TK-10; 2.92 µM (inactive) in the experiment with SW-620; 0.499 µM (active) in the experiment with NCI-H460. The GI50 in the experiment with HCT-15 was 1.86 µM; in the experiment on RXF 393, 1.68 µM (inactive); in the experiment on Hs-578T it was 2.88 µM (inactive); in the experiment on HOP-92 it was 1.59 µM (inactive); in the experiment with SK-MEL-28 it was 6.5 µM (inactive); in the experiment on SF-268 it was 2.7 µM (inactive). The GI50 in the experiment on IGROV-1 is 1.98 µM (inactive); in the experiment with SN12C it was 1.72 µM (inactive); with EKVX, < 0.01 µM (active); in the experiment on U-251, < 0.01 µM (active).
